22 molecules from patent US12171756B2, “NLRP3 modulators” (Innate Tumor Immunity, Inc., priority 2017, dated 2024) can be followed below.

The structures appear in SMILES notation. Where a name gives a salt, the structure may show the parent alone.

In experiment [1] the target is T1, human TLR8 (Homo sapiens, UniProt Q9NR97).
T1 construct: host or cells: human HEK-Blue cells (HEK293-derived) co-expressing TLR8 and an NF-kB/AP1-inducible SEAP reporter
T1 sequence (Q9NR97 27-1041): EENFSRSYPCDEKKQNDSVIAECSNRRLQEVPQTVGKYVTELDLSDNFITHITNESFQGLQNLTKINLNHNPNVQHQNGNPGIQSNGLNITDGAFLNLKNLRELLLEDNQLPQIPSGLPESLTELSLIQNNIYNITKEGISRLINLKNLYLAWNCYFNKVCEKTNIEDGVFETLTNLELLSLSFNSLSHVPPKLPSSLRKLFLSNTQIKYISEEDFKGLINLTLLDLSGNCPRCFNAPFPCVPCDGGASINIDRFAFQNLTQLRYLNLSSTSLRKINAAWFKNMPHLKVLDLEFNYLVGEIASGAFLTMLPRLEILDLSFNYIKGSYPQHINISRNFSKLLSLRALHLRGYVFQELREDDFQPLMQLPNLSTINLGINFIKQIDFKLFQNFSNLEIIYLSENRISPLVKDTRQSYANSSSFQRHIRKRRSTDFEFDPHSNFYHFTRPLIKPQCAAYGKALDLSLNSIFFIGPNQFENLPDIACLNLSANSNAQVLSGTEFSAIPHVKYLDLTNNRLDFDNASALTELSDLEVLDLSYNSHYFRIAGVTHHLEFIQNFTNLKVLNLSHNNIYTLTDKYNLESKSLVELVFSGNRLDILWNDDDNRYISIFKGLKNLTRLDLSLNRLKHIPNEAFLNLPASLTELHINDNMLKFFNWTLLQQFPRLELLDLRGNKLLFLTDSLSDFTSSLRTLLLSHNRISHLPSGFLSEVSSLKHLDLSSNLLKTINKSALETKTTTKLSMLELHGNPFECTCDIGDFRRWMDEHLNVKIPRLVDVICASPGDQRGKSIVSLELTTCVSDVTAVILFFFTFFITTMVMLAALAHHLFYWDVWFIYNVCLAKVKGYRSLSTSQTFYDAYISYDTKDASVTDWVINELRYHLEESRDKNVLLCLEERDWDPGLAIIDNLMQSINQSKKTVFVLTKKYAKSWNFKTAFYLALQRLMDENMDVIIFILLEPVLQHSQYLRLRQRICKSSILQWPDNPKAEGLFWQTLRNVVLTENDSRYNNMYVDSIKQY
As to the kind of experiment: In vitro human TLR8 binding reporter assay (HEK-Blue, NF-kB/AP1-inducible SEAP). The class given is cell-based. The conditions noted are these: HEK-Blue human TLR8 SEAP reporter cells; activity range classes; read-out: TLR8 Agonist EC50. The procedure:
(§1) In Vitro Human TLR7 and TLR8 Binding Reporter Assays
(§2) Logarithmically-growing human HEK-Blue cells co-expressing a TLR7 or TLR8 gene and a NF-kB/AP1-inducible SEAP (secreted embryonic alkaline phosphatase; Invivogen, San Diego, CA) reporter gene are added to individual wells of a 384-well plate (15,000 cells per 20 μL per well) and maintained for 24 h at 37° C., 5% CO2. Test compounds or DMSO are distributed to separate wells the next day using acoustic liquid handling technology (100 nL per well) and cells are subsequently incubated for 18 h at 37° C., 5% CO2. Cellular SEAP production is measured using an Envision plate reader instrument thirty minutes after adding freshly-made Quanti-Blue reagent (prepared by following manufacturer instructions; Invivogen, San Diego, CA) to the HEK-Blue TLR Nf-kB-SEAP cell reactions. All EC50 values (half-maximal effective concentration) are determined using proprietary data analysis software. Normalized EC50 value=absolute value determined by setting 100% Ymax using a reference standard RLU (relative light unit) values from cells treated with 50 μM of the reference standard.
A general note: A reporter such as luciferase makes a cellular process visible.

The target in experiment [2] is T2, human TLR7 (Homo sapiens, UniProt Q9NYK1).
T2 construct: host or cells: human HEK-Blue cells (HEK293-derived) co-expressing TLR7 and an NF-kB/AP1-inducible SEAP reporter
T2 sequence (Q9NYK1 27-1049): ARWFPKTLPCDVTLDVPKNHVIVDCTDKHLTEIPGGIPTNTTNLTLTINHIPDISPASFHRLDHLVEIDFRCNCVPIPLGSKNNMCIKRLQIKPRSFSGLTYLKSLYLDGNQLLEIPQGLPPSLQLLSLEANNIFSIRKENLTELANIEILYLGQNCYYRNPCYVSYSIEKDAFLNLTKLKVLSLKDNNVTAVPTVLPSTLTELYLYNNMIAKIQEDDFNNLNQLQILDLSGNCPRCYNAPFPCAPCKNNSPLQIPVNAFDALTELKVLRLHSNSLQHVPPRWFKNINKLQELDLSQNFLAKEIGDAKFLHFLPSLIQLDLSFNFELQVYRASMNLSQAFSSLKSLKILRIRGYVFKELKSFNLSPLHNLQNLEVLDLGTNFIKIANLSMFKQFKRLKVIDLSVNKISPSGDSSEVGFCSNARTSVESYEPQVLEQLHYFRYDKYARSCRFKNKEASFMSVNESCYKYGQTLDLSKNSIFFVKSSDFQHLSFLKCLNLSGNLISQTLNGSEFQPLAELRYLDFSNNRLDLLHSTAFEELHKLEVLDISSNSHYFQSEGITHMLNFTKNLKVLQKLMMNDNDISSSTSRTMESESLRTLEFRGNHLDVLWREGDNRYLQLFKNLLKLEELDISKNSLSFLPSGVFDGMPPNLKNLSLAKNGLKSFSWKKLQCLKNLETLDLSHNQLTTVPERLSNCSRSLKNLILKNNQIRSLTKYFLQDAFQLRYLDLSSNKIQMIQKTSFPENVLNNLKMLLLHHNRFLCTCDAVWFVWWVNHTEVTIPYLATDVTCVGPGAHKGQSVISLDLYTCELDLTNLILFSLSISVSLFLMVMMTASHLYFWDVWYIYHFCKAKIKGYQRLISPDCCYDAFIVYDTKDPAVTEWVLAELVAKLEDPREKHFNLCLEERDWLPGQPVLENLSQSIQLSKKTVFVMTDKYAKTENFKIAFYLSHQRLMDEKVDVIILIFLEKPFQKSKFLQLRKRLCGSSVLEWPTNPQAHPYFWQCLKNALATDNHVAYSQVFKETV
As to the kind of experiment: In vitro human TLR7 binding reporter assay (HEK-Blue, NF-kB/AP1-inducible SEAP). The class given is cell-based. The conditions noted are these: HEK-Blue human TLR7 SEAP reporter cells; activity range classes; read-out: TLR7 Agonist EC50. The procedure: as §1, §2

The test system of experiment [3] is IL-1β production in PMA-differentiated THP-1 cells. As to the kind of experiment: Measurement of IL-1β production in PMA-differentiated THP-1 cells (ELISA, 4 hours). It counts as cell-based, human. The conditions noted are these: Homo sapiens, THP-1, human IL-1β production, assayed using one or more of the described procedures, read-out: NLRP3 hIL1B IC50. On the procedure:
Measurement of IL-1β Production in PMA-Differentiated THP-1 Cells THP-1 cells were purchased from the American Type Culture Collection and sub-cultured according to instructions from the supplier. Prior to experiments, cells were cultured in RPMI 1640 containing 10% heat inactivated FBS, penicillin (100 units/ml) and streptomycin (100 μg/ml), and maintained in log phase prior to experimental setup. Prior to the experiment THP-1 were treated with PMA (Phorbol 12-myristate 13-acetate) (10 μg/ml) for 24 hours. The day of the experiment the media was removed and attaching cells were treated with trypsin for 2 minutes, cells were then collected, washed with PBS (phosphate buffer saline), spin down, resuspended in 2% heat inactivated FBS with RPMI at a concentration of 1×10^6 cells/ml, and 100 μl was plated in a 96 well plate. Compounds were dissolved in dimethyl sulfoxide (DMSO) and added to the culture medium to achieve desired concentration (e.g. 100, 30, 10, 3, 1, 0.3 or 0.1 μM). Cells were incubated with compounds for 4 hours. Cell free supernatant was collected and the production of IL-1β was evaluated by ELISA. A vehicle only control was run concurrently with each experiment. Final DMSO concentration was 1%.
(In an ELISA, binding on a coated surface is turned into a signal by an enzyme label.)

As usually defined, the EC50 is the concentration needed to bring the measured effect to its halfway point. By IC50 is commonly meant the point on the concentration scale where inhibition reaches its midpoint.

Take `Nc1cc(NCCc2nccs2)c2ccc(-n3cccn3)cc2n1` [Compound 297]: the EC50 in experiment [1] and in experiment [2] was more than 100 µM throughout. In addition, the IC50 in experiment [3] is 570 nM.

Regarding `Nc1cc(NCC2CCNC2)c2ccc(-c3ccn[nH]3)cc2n1` (stereo not drawn) [Compound 327], the EC50 in experiment [1] and in experiment [2] was more than 100 µM throughout. Besides, the 50% inhibitory concentration (IC50) in experiment [3] is 4660 nM.

Regarding `Nc1cc(N2CCCOCC2)c2ccc(-c3ccn[nH]3)cc2n1` [Compound 265], the EC50 in experiment [1] and in experiment [2] was more than 100 µM in each case. Moreover, the IC50 in experiment [3] was 350 nM.

With `Nc1cc(NCCc2cccnn2)c2ccc(-c3cc[nH]n3)cc2n1` [Compound 340, 7-(1H-pyrazol-3-yl)-N4-(2-(pyridazin-3-yl)ethyl)quinolin-2,4-diamine], the EC50 in experiment [1] and in experiment [2] was more than 100 µM throughout. In addition, in experiment [3], the IC50 was 730 nM.

Consider `Nc1cc(NCCCCO)c2ccc(-c3ccn[nH]3)cc2n1` [Compound 144], for which the EC50 in experiment [1] and in experiment [2] was more than 100 µM in each case. Also, the IC50 in experiment [3] stood at 480 nM.

Take `CC(C)(O)CCNc1cc(N)nc2cc(-n3cccn3)ccc12` [Compound 301]: the EC50 in experiment [1] and in experiment [2] was more than 100 µM each time. The IC50 in experiment [3] stood at 1010 nM.

As to `CN(Cc1cc[nH]n1)c1cc(N)nc2cc(-c3ccn[nH]3)ccc12` [Compound 263], the EC50 in experiment [1] and in experiment [2] was more than 100 µM throughout. For the same molecule, in experiment [3], the IC50 is 2870 nM.

`CNc1cc(N)nc2cc(-c3ccn[nH]3)ccc12` [Compound 253]: the EC50 in experiment [1] and in experiment [2] was more than 100 µM throughout. Moreover, the IC50 in experiment [3] came out at 270 nM.

Turning to `CCNC(=O)NCCNc1cc(N)nc2cc(-c3ccn[nH]3)ccc12` [Compound 207, 1-(2-((2-amino-7-(1H-pyrazol-5-yl)quinolin-4-yl)amino)ethyl)-3-ethylurea, TFA], the EC50 in experiment [1] and in experiment [2] was more than 100 µM throughout. For the same molecule, in experiment [3], the IC50 worked out at 1070 nM.

With `Nc1cc(N[C@@H]2CCC[C@@H]2O)c2ccc(-n3cccn3)cc2n1` [Compound 295], the EC50 in experiment [1] and in experiment [2] was more than 100 µM throughout. Also, in experiment [3], the IC50 came out at 310 nM.

With `Nc1cc(N[C@H]2CC[C@@H](O)CC2)c2ccc(-c3ccn[nH]3)cc2n1` [Compound 283], the EC50 in experiment [1] and in experiment [2] was more than 100 µM throughout. In addition, the IC50 in experiment [3] was determined as 1700 nM.

For `Nc1cc(NCc2ncc[nH]2)c2ccc(-n3cccn3)cc2n1` [Compound 298], the EC50 in experiment [1] and in experiment [2] was more than 100 µM in each case. Also, the IC50 in experiment [3] came out at 150 nM.

On to `Cc1cc2c(NCCCO)cc(N)nc2cc1-c1ccn[nH]1` [Compound 319], for which the EC50 in experiment [1] and in experiment [2] was more than 100 µM each time. Also, in experiment [3], the IC50 turned out to be 25700 nM.

On to `Nc1cc(N2CCc3ncccc3C2)c2ccc(-c3ccn[nH]3)cc2n1` [Compound 164], for which the EC50 in experiment [1] and in experiment [2] was more than 100 µM throughout. Moreover, in experiment [3], the half-inhibitory concentration (IC50) is 1910 nM.

Consider `Nc1cc(NCC(F)(F)c2ccccn2)c2ccc(-n3cccn3)cc2n1` [Compound 299], for which the EC50 in experiment [1] and in experiment [2] was more than 100 µM each time. Further, in experiment [3], the IC50 stood at 650 nM.

In the case of `Nc1cc(OCC2(CO)CC2)c2ccc(-c3ccn[nH]3)cc2n1` [Compound 192], the EC50 in experiment [1] and in experiment [2] was more than 100 µM throughout. The IC50 in experiment [3] amounted to 630 nM.

Consider `Nc1nc2cc(-c3cc[nH]n3)ccc2cc1CCCCO` [Compound 102, 4-[2-amino-7-(1H-pyrazol-3-yl)quinolin-3-yl]butan-1-ol], for which the EC50 in experiment [1] and in experiment [2] was more than 100 µM in each case. Moreover, the IC50 in experiment [3] was found to be 1380 nM.

`Cn1nncc1COc1cc(N)nc2cc(-c3ccn[nH]3)ccc12` [Compound 311]: the EC50 in experiment [1] and in experiment [2] was more than 100 µM in each case. Further, the IC50 in experiment [3] amounted to 3130 nM.

As to `Nc1cc(OCc2ccn[nH]2)c2ccc(-c3ccn[nH]3)cc2n1` [Compound 313, 4-((1H-pyrazol-5-yl)methoxy)-7-(1H-pyrazol-5-yl)quinolin-2-amine], the EC50 in experiment [1] and in experiment [2] was more than 100 µM throughout. Moreover, the IC50 in experiment [3] came to 110 nM.

As for `Nc1cc(NC2CCOC2)c2ccc(-c3ccn[nH]3)cc2n1` (stereo not drawn) [Compound 275], the EC50 in experiment [1] and in experiment [2] was more than 100 µM in each case. Moreover, the IC50 in experiment [3] worked out at 200 nM.

Regarding `Nc1cc(OCC2(CO)CCC2)c2ccc(-c3cccs3)cc2n1` [Compound 334, (1-(((2-amino-7-(thiophen-2-yl)quinolin-4-yl)oxy)methyl)cyclobutyl)methanol], the EC50 in experiment [1] and in experiment [2] was more than 100 µM each time. Besides, the IC50 in experiment [3] is 2620 nM.

As to `Nc1cc(-c2ccn[nH]2)c2ccc(-c3ccn[nH]3)cc2n1` [Compound 339, 4,7-di(1H-pyrazol-5-yl)quinolin-2-amine, HCl], the EC50 in experiment [1] and in experiment [2] was more than 100 µM in each case. Moreover, the IC50 in experiment [3] came to 480 nM.
